Holding throughout (format): functional
One assay relates to Aspergillus flavus. Put plainly: Antifungal activity against Aspergillus flavus after 72 to 96 hr by two-fold serial dilution method.
In another assay the test system is Enterococcus faecalis. Nature of the assay: Antibacterial activity against Enterococcus faecalis after 24 hr by two-fold serial dilution method.
Assay [1] has as its system Candida. Nature of the assay: Antifungal activity against Candida-6 after 72 to 96 hr by two-fold serial dilution method.
The subject of a further assay is Pseudomonas aeruginosa. Nature of the assay: Antibacterial activity against Pseudomonas aeruginosa after 24 hr by twofold serial dilution method.
The next assay concerns Aspergillus niger. Nature of the assay: Antifungal activity against Aspergillus niger after 72 to 96 hr by two-fold serial dilution method.
Another assay has as its system Staphylococcus aureus. Nature of the assay: Antibacterial activity against Staphylococcus aureus after 24 hr by two-fold serial dilution method.
Assay [2] concerns Candida. Put plainly: Antifungal activity against Candida-51 after 72 to 96 hr by two-fold serial dilution method.
The test system of the next assay is Bacillus subtilis. Nature of the assay: Antibacterial activity against Bacillus subtilis after 24 hr by two-fold serial dilution method.

Structures are written as SMILES. In brackets after ≈: the same amount, converted by molar mass.

On to `CC(C)C1C(=O)CC(c2ccco2)NC1c1ccco1` (stereo unspecified), for which the MIC with Aspergillus flavus was more than 100 µg/mL; in the assay with Enterococcus faecalis it was more than 100 µg/mL; against Candida [1], 50 µg/mL (≈ 183 µM); in the assay on Pseudomonas aeruginosa, 50 µg/mL (≈ 183 µM); in the assay on Aspergillus niger, more than 100 µg/mL; in the assay with Staphylococcus aureus it was more than 100 µg/mL. Also, the minimal inhibitory concentration (MIC) is 25 µg/mL (≈ 91.5 µM) in the assay with Candida [2] and 100 µg/mL (≈ 366 µM) against Bacillus subtilis.

On to `CC(C)C1/C(=N/O)CC(c2ccco2)NC1c1ccco1` (stereo unspecified), for which the MIC came to 25 µg/mL (≈ 86.7 µM) against Aspergillus flavus; 50 µg/mL (≈ 173 µM) with Enterococcus faecalis; 50 µg/mL (≈ 173 µM) with Candida [1]; 100 µg/mL (≈ 347 µM) against Pseudomonas aeruginosa; 100 µg/mL (≈ 347 µM) against Aspergillus niger; 50 µg/mL (≈ 173 µM) against Staphylococcus aureus. Moreover, the minimal inhibitory concentration (MIC) in the assay on Candida [2] and with Bacillus subtilis was 50 µg/mL (≈ 173 µM) throughout.

For the compound `CC(C)C1C(=O)CC(c2ccco2)N(C=O)C1c1ccco1` (stereo unspecified), the MIC against Aspergillus flavus was determined as 50 µg/mL (≈ 166 µM); in the assay with Enterococcus faecalis it was 25 µg/mL (≈ 83 µM); against Candida [1] it was 25 µg/mL (≈ 83 µM); in the assay with Pseudomonas aeruginosa, 50 µg/mL (≈ 166 µM); with Aspergillus niger it was 50 µg/mL (≈ 166 µM); in the assay on Staphylococcus aureus, 50 µg/mL (≈ 166 µM). For the same compound, the MIC against Candida [2] was found to be 50 µg/mL (≈ 166 µM); against Bacillus subtilis, 25 µg/mL (≈ 83 µM).

Consider `CC(=O)N1C(c2ccco2)CC(=O)C(C(C)C)C1c1ccco1` (stereo unspecified), for which the MIC was determined as 50 µg/mL (≈ 159 µM) in the assay with Aspergillus flavus; 50 µg/mL (≈ 159 µM) in the assay on Enterococcus faecalis; 50 µg/mL (≈ 159 µM) in the assay with Candida [1]; 25 µg/mL (≈ 79.3 µM) in the assay with Pseudomonas aeruginosa; 50 µg/mL (≈ 159 µM) in the assay on Aspergillus niger; 12.5 µg/mL (≈ 39.6 µM) against Staphylococcus aureus. Moreover, the results for the MIC against Candida [2] and against Bacillus subtilis were 25 µg/mL (≈ 79.3 µM) and 12.5 µg/mL (≈ 39.6 µM), respectively.

For `CC(C)C1C(=O)CC(c2ccco2)N(C(=O)c2ccccc2)C1c1ccco1` (stereo unspecified), the MIC against Aspergillus flavus is 25 µg/mL (≈ 66.2 µM); against Enterococcus faecalis, 50 µg/mL (≈ 132 µM); with Candida [1], 12.5 µg/mL (≈ 33.1 µM); with Pseudomonas aeruginosa it was 50 µg/mL (≈ 132 µM); in the assay with Aspergillus niger, 25 µg/mL (≈ 66.2 µM); against Staphylococcus aureus it was 25 µg/mL (≈ 66.2 µM). Further, the MIC in the assay on Candida [2] and against Bacillus subtilis was 12.5 µg/mL (≈ 33.1 µM) each time.

Take `CCC(=O)N1C(c2ccco2)CC(=O)C(C(C)C)C1c1ccco1` (stereo unspecified): the minimum inhibitory concentration (MIC) in the assay with Aspergillus flavus is 25 µg/mL (≈ 75.9 µM); in the assay on Enterococcus faecalis, 50 µg/mL (≈ 152 µM); in the assay on Candida [1], 12.5 µg/mL (≈ 37.9 µM); against Pseudomonas aeruginosa, 25 µg/mL (≈ 75.9 µM); against Aspergillus niger, 50 µg/mL (≈ 152 µM); with Staphylococcus aureus, 25 µg/mL (≈ 75.9 µM). Also, the MIC against Candida [2] came to 50 µg/mL (≈ 152 µM); in the assay with Bacillus subtilis, 12.5 µg/mL (≈ 37.9 µM).

On to `C[C@@H]1[C@H](O)[C@@H](C)/C=C/C=C/C=C/C=C/C=C/C=C/C=C/[C@H](O[C@@H]2O[C@H](C)[C@@H](O)[C@H](N)[C@@H]2O)C[C@@H]2O[C@](O)(C[C@@H](O)C[C@@H](O)[C@H](O)CC[C@@H](O)C[C@@H](O)CC(=O)O[C@H]1C)C[C@H](O)[C@H]2C(=O)O` [AMPHOTERICIN B], for which the MIC was found to be 50 µg/mL (≈ 54.1 µM) in the assay with Aspergillus flavus, 25 µg/mL (≈ 27.1 µM) against Candida [1], 50 µg/mL (≈ 54.1 µM) against Aspergillus niger and 25 µg/mL (≈ 27.1 µM) in the assay on Candida [2].

Take `CN[C@@H]1[C@H](O[C@H]2[C@H](O[C@H]3[C@H](O)[C@@H](O)[C@H](N=C(N)N)[C@@H](O)[C@@H]3N=C(N)N)O[C@@H](C)[C@]2(O)C=O)O[C@@H](CO)[C@H](O)[C@H]1O` [STREPTOMYCIN]: the minimum inhibitory concentration (MIC) in the assay on Enterococcus faecalis amounted to 50 µg/mL (≈ 86 µM); in the assay with Pseudomonas aeruginosa it was 25 µg/mL (≈ 43 µM); against Staphylococcus aureus, 25 µg/mL (≈ 43 µM); against Bacillus subtilis, 12.5 µg/mL (≈ 21.5 µM).
